Key:
[1] = system: Thanatephorus cucumeris (Rhizoctonia solani); test: Thanatephorus cucumeris (Rhizoctonia solani) / liquid culture (foot rot, damping-off); assay type: cell-based; details: at ≦200 ppm, liquid culture PDB, inhibition of growth photometrically 3-4 days after application, read-out: control of Thanatephorus cucumeris
Procedure: Thanatephorus cucumeris (Rhizoctonia solani)/Liquid Culture (Foot Rot, Damping-Off Mycelia fragments of a newly grown liquid culture of the fungus are directly mixed into nutrient broth (PDB potato dextrose broth). After placing a DMSO solution of the test compounds into a 96-well microtiter, the nutrient broth containing the fungal material was added. The test plates were incubated at 24° C. and the inhibition of growth was determined photometrically 3-4 days after application. […]-2.508 5.561; 2.561; P.57; 2.513; 2.559; 2.558; 2.553; 2.533; 2.530; 2.526; 2.519; 2.517; 2.516; 2.514; 2.512; 2.514

Gaeumannomyces graminis = Gaeumannomyces graminis / liquid culture (take-all of cereals); assay type: cell-based; details: at ≦200 ppm, liquid culture PDB, inhibition of growth photometrically 4-5 days after application, read-out: control of Gaeumannomyces graminis
In short: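 Mycelial fragments of the fungus in potato dextrose broth were added to wells containing compound in DMSO. Plates were incubated at 24° C, and growth inhibition was read photometrically 4-5 days after application.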

[2] = system: Mycosphaerella arachidis (Cercospora arachidicola); test: Mycosphaerella arachidis (Cercospora arachidicola) / liquid culture (early leaf spot); assay type: cell-based; details: at ≦200 ppm, liquid culture PDB, inhibition of growth photometrically 4-5 days after application, read-out: control of Mycosphaerella arachidis
In short: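 Cryostored Cercospora arachidicola conidia were mixed into potato dextrose broth and added to test compound in DMSO. Incubation was at 24° C. Growth inhibition was read photometrically 4-5 days after application.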

Pyrenophora teres = Pyrenophora teres / barley / leaf disc preventative (net blotch); assay type: in vivo; details: foliar, barley leaf segments cv Hasso, inoculated two days after application, assessed 5-7 days after application
Procedure: Pyrenophora teres/Barley/Leaf Disc Preventative (Net Blotch): Barley leaf segments cv Hasso are placed on agar in a 24-well plate and sprayed with formulated test compound diluted in water at an application rate of 200 ppm. The leaf segments are inoculated with a spore suspension of the fungus two days after application of the test solution. The inoculated leaf segments are incubated at 20° C. and 65% relative humidity under a light regime of 12/12 h (light/dark) in a climate cabinet and the activity of a compound is assessed as disease control compared to untreated when an appropriate level of disease damage appears in untreated check leaf segments (5-7 days after application). […]-2.507; 5.561; 2.561; E/E-2.208; P.57; 2.513; 2.559; 2.558; 2.556; 2.555; 2.374; 2.552; 2.544; 2.537; 2.533; 2.530; 2.528; 2.519; 2.510; 2.516; 2.514; E/E-5.167; E/E-3.002; 2.512

[3] = system: Puccinia recondita f. sp. tritici; test: Puccinia recondita f. sp. tritici / wheat / leaf disc preventative (brown rust); assay type: in vivo; details: foliar, wheat leaf segments cv Kanzler, inoculated 1 day after application, assessed 7-9 days after application
Procedure: Puccinia recondita f. sp. Tritici/Wheat/Leaf Disc Preventative (Brown Rust): Wheat leaf segments cultivated variety (cv) Kanzler were placed on agar in 24-well plates and sprayed with formulated test compound diluted in water at an application rate of 200 ppm. The leaf disks were inoculated with a spore suspension of the fungus 1 day after application. The inoculated leaf segments were incubated at 19° C. and 75% relative humidity under a light regime of 12/12 h (light/dark) in a climate cabinet and the activity of a compound was assessed as percent disease control compared to untreated when an appropriate level of disease damage appears in untreated check leaf segments (7-9 days after application). […]-2.508; 5.561; 2.561; 2.513; 2.559; 2.556; 2.555; 2.374; 2.544; 2.537; 2.530; 2.525 (fraction B); 2.519; 2.516; 2.514; E/E-5.167; E/E-3.002; 2.512; E/E-2.507

[4] = system: Monographella nivalis (Microdochium nivale); test: Monographella nivalis (Microdochium nivale) / liquid culture (foot rot cereals); assay type: cell-based; details: at ≦200 ppm, liquid culture PDB, inhibition of growth photometrically 4-5 days after application, read-out: control of Monographella nivalis
In short: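 Microdochium nivale conidia in potato dextrose broth added to compound delivered in DMSO, then incubated at 24 °C. Growth inhibition measured photometrically 4-5 days after application.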

[5] = system: Mycosphaerella graminicola (Septoria tritici); test: Mycosphaerella graminicola (Septoria tritici) / liquid culture (Septoria blotch); assay type: cell-based; details: Zymoseptoria tritici; at ≦200 ppm, liquid culture PDB, inhibition of growth photometrically 4-5 days after application; read-out: control of Mycosphaerella graminicola

C/C(=N\OCC(C)(C)CO/N=C1\CCCc2ccc(C)nc21)c1ccc2ccccc2n1 [Compound 2.512]
≥ 80%: inhibition of growth at up to 200 µg/mL [1] | inhibition of growth at up to 200 µg/mL (Gaeumannomyces graminis) | inhibition of growth at up to 200 µg/mL [2] | pest or weed control at 200 ppm (Pyrenophora teres) | pest or weed control at 200 ppm [3] | inhibition of growth at up to 200 µg/mL [4] | inhibition of growth at up to 200 µg/mL [5]

C=C(CO/N=C(\C)c1cccc(C)n1)CO/N=C1\CCCc2ccc(C)nc21 [E/E-3.002]
≥ 80%: inhibition of growth at up to 200 µg/mL (Gaeumannomyces graminis) | inhibition of growth at up to 200 µg/mL [2] | pest or weed control at 200 ppm (Pyrenophora teres) | pest or weed control at 200 ppm [3] | inhibition of growth at up to 200 µg/mL [5]

Cc1ccc(O)c(/C=N/OCC(C)(C)CO/N=C2\CCCc3ccc(C)nc32)n1 [Compound 2.533]
≥ 80%: inhibition of growth at up to 200 µg/mL [1] | inhibition of growth at up to 200 µg/mL (Gaeumannomyces graminis) | inhibition of growth at up to 200 µg/mL [2] | pest or weed control at 200 ppm (Pyrenophora teres) | inhibition of growth at up to 200 µg/mL [4] | inhibition of growth at up to 200 µg/mL [5]

C/C(=N\OCC(C)(C)CO/N=C1\CCCc2ccc(Cl)nc21)c1cc(C)cc(C)n1 [Compound 2.555]
≥ 80%: inhibition of growth at up to 200 µg/mL (Gaeumannomyces graminis) | inhibition of growth at up to 200 µg/mL [2] | pest or weed control at 200 ppm (Pyrenophora teres) | pest or weed control at 200 ppm [3] | inhibition of growth at up to 200 µg/mL [4] | inhibition of growth at up to 200 µg/mL [5]

C/C(=N\OCC(C)(C)CO/N=C1\CCCc2ccc(C)nc21)c1cccc(C)n1 [E/E-2.002]
≥ 80%: inhibition of growth at up to 200 µg/mL [1] | inhibition of growth at up to 200 µg/mL (Gaeumannomyces graminis) | inhibition of growth at up to 200 µg/mL [2] | pest or weed control at 200 ppm (Pyrenophora teres) | pest or weed control at 200 ppm [3] | inhibition of growth at up to 200 µg/mL [4] | inhibition of growth at up to 200 µg/mL [5]

Cc1cccc(/C(=N/OCC(C)(C)CO/N=C2\CCCc3ccc(C)nc32)c2ccccc2)n1 [E/E-2.474]
≥ 80%: inhibition of growth at up to 200 µg/mL [1] | inhibition of growth at up to 200 µg/mL (Gaeumannomyces graminis) | inhibition of growth at up to 200 µg/mL [2] | pest or weed control at 200 ppm (Pyrenophora teres) | pest or weed control at 200 ppm [3] | inhibition of growth at up to 200 µg/mL [4] | inhibition of growth at up to 200 µg/mL [5]

C/C(=N/OCC(C)(C)CO/N=C1\CCCc2ccc(C)nc21)c1ccccn1 [Compound 2.519]
≥ 80%: inhibition of growth at up to 200 µg/mL [1] | inhibition of growth at up to 200 µg/mL (Gaeumannomyces graminis) | inhibition of growth at up to 200 µg/mL [2] | pest or weed control at 200 ppm (Pyrenophora teres) | pest or weed control at 200 ppm [3] | inhibition of growth at up to 200 µg/mL [4] | inhibition of growth at up to 200 µg/mL [5]

CC/C(=N\OCC(C)(C)CO/N=C1\CCCc2ccc(C)nc21)c1ccccn1 [Compound 2.516]
≥ 80%: inhibition of growth at up to 200 µg/mL [1] | inhibition of growth at up to 200 µg/mL (Gaeumannomyces graminis) | inhibition of growth at up to 200 µg/mL [2] | pest or weed control at 200 ppm (Pyrenophora teres) | pest or weed control at 200 ppm [3] | inhibition of growth at up to 200 µg/mL [4] | inhibition of growth at up to 200 µg/mL [5]

C/C(=N\OCC(C)(C)CO/N=C1\CCCc2c1nc1ccccc1c2C)c1cc(C)cc(C)n1 [Compound 2.561]
≥ 80%: inhibition of growth at up to 200 µg/mL [1] | inhibition of growth at up to 200 µg/mL (Gaeumannomyces graminis) | inhibition of growth at up to 200 µg/mL [2] | pest or weed control at 200 ppm (Pyrenophora teres) | pest or weed control at 200 ppm [3] | inhibition of growth at up to 200 µg/mL [5]

C/C(=N\OCC1(CO/N=C2\CCCc3c2nc2ccccc2c3C)CC1)c1cc(C)cc(C)n1 [Compound 5.561]
≥ 80%: inhibition of growth at up to 200 µg/mL [1] | inhibition of growth at up to 200 µg/mL (Gaeumannomyces graminis) | inhibition of growth at up to 200 µg/mL [2] | pest or weed control at 200 ppm (Pyrenophora teres) | pest or weed control at 200 ppm [3] | inhibition of growth at up to 200 µg/mL [5]
